Results as given in US20180079906A1, “AZACYANINE DYES AND USE THEREOF” (Ecole Polytechnique Fédérale de Lausanne (EPFL), priority 2016, published 2018).

What was measured:
[1] = tested on: skin tissue of a nude mouse; assay: Ex vivo cell death assay by cryogenic tissue damage (imaging necrosis); conditions: for fluorescence at the site of focal dry-ice treatment: cryogenic tissue damage, 1, 5, 10 uM dye, 10 min at room temperature
Source text: Ex vivo cell death assay for compounds, VI and XIV were studied using a method of cryogenic tissue damage. […] After gentle washing with PBS, the samples were scanned for fluorescence using an IVIS Spectrum imaging system (FIG. 18-19).

[2] = cited from earlier work
[3] = in methanol, calibration standard; cited from earlier work
4T1-luc2 tumors = assay: In vivo NIR fluorescence imaging of subcutaneous 4T1 tumors in nude mice
Method: Female nude mice 6-8 weeks of age were injected with […] of 4T1 cells in 100 ul of PBS subcutaneously into the right flank. Once the tumors reached approximately 0.5 cm^3 in size, animals were injected with 20 nmol of the imaging probe XXI intravenously in 100 ul of PBS. Mice were then imaged at different time points using IVIS Spectrum instrument (Perkin Elmer) at recommended settings 745/810 nm excitation/emission (FIGS. 11-12).

mastocytoma tumor = assay: Fluorescence image-guided surgery of mastocytoma tumor in dogs; format: in vivo, dog
Method: A kuvasz dog (male, 30 kg) diagnosed with mastocvtoma tumor on his right leg was used for image guided surgery study. All canine studies were performed at Veterinair Verwijscentrum Gouda, Netherlands. Canine was injected intravenous catheterization into the cephalic vein with fluorescence probe XXI (180 nmol/kg) 6h prior to surgery. Canine underwent to general anesthesia prior to surgery. Image guided cancer surgery was performed using Solaris Open-air Fluorescence Imaging System (Perkin Elmer), equipped with four fluorescent channels (470 nm, 660 nm, 750 nm and 800 nm) to obtain real-time visualization of tumor imaging in ambient light (FIGS. 13-15).
A labrador dog (male, 33 kg) diagnosed with mastocytoma tumor on his nose was used for image guided surgery study. All canine studies were performed at Veterinair Verwijscentrum Gouda, Netherlands. Canine was injected intravenous catheterization into the cephalic vein with fluorescence probe XXI (92 nmol/kg) 10 h prior to surgery. Canine underwent to general anesthesia prior to surgery. Image guided cancer surgery was performed using Solaris Open-air Fluorescence Imaging System (Perkin Elmer), equipped with four fluorescent channels (470 nm, 660 nm, 750 nm and 800 nm) to obtain real-time visualization of tumor imaging in ambient light (FIGS. 16-17).

[4] = 30 kg dog, 180 nmol/kg I.V., 6h after injection

SMILES: CC1(C)C2=CC=CN(CCCCCC(=O)O)C2=N/C1=C/C=C1\C[N+](C)(C)CC(/C=C/C2=Nc3c(ccc[n+]3CCCCCC(=O)O)C2(C)C)=C1Cl [Dye VI]
- fluorescence signal from viable cells ([1]; cryogenic tissue damage): no signal
- fluorescence at the site of focal dry-ice treatment [1]: strong fluorescence signal

SMILES: CC1(C)C2=CC=CN(CCCCCC(=O)O)C2=N/C1=C/C=C1\C[N+](C)(C)CC(/C=C/C2=Nc3c(ccc[n+]3CCCCCC(=O)O)C2(C)C)=C1Oc1ccc(S(=O)(=O)O)cc1.[Na+] [Dye XIV]
- fluorescence at the site of focal dry-ice treatment [1]: strong accumulation of fluorescence

SMILES: CC1(C)C(/C=C/C=C/C=C/C=C2\N(CCCCS(=O)(=O)O)c3ccc4ccccc4c3C2(C)C)=[N+](CCCCS(=O)(=O)[O-])c2ccc3ccccc3c21 [ICG, Indocyanine Green]
- solubility in saline [2]: not readily soluble
- fluorescence quantum yield (QY) [3]: 7.8%

SMILES: CC1(C)C2=CC=CN(CCCCCC(=O)NCCCC[C@@H]3NC(=O)[C@@H](Cc4ccccc4)NC(=O)[C@H](CC(=O)O)NC(=O)CNC(=O)[C@H](CCCNC(=N)N)NC3=O)C2=N/C1=C/C=C1\C[N+](C)(C)CC(/C=C/C2=Nc3c(ccc[n+]3CCCCCC(=O)NCCCC[C@H]3NC(=O)[C@H](Cc4ccccc4)NC(=O)[C@@H](CC(=O)O)NC(=O)CNC(=O)[C@@H](CCCNC(=N)N)NC3=O)C2(C)C)=C1Oc1ccc(S(=O)(=O)O)cc1.[Na+] [Dye XXI]
- time post injection of optimal background/noise ratio calculated from the region of interest (4T1-luc2 tumors; 4T1 tumour bearing mice): 2 h
- tumor uptake (kinetics and specificity) (4T1-luc2 tumors; subcutaneous tumors in mice): faster and more specific tumor uptake
- time post injection at which optimal background to noise ratio is achieved (4T1-luc2 tumors; subcutaneous tumors in mice, intravenous injection): 2 h
- background uptake in normal tissue (mastocytoma tumor; [4]): negligible
- identification of tumor by fluorescence in vivo (mastocytoma tumor; [4]): clearly identified
- time post injection of highest accumulation in the tumor tissue (mastocytoma tumor; dogs): ≤ 6 h
